Experimental data reported in patent publication US6066628A, “Non-iron metalloporphyrins and methods of use” (Emory University, priority 1998, dated 2000).
Read-outs that look alike come from different tables or passages of the source.

What was measured:
N. gonorrhoeae = test: Minimal inhibitory concentration; format: cell-based, Neisseria gonorrhoeae; details: N. gonorrhoeae MS111; 20 to 24 hours (Table 5)
S. aureus [1] = format: cell-based, Staphylococcus aureus
P. mirabills = test: Disc diffusion sensitivity test; format: cell-based, Proteus mirabilis
L. monocytogenes = test: Minimal inhibitory concentration; format: cell-based; details: 20 to 24 hours (Table 5)
N. meningitidis = test: Disc diffusion sensitivity test; format: cell-based; details: disc ~50 μg MP
B. subtilis = test: Disc diffusion sensitivity test; format: cell-based, Bacillus subtilis; details: B. subtilis; disc ~50 μg MP
S. marcescens = test: Disc diffusion sensitivity test; format: cell-based, Serratia marcescens
[2] = tested on: Mycobacterium bovis (BCG); format: cell-based
C. freundii = test: Disc diffusion sensitivity test; format: cell-based, Citrobacter freundii
[3] = tested on: methicillin resistant S. aureus IR2419; format: cell-based, Staphylococcus aureus; details: 1 μg/ml, below the MIC value
M tuber. H37Pa = test: Disc diffusion sensitivity test; format: cell-based, Mycobacterium tuberculosis; details: disc ~50 μg MP
M. bovis = format: cell-based, Mycobacterium bovis; details: disc ~50 μg MP
E. coli = format: cell-based, Escherichia coli
Y. enterocolitica [4] = test: Minimal bactericidal concentration; format: cell-based; details: reduces plating efficiency more than 99.9%; minimal exposure to light
Y. enterocolitica [5] = test: Disc diffusion sensitivity test; format: cell-based; details: disc ~50 μg MP
Y. pseudotuberculosis = format: cell-based
E. faecalis = test: Disc diffusion sensitivity test; format: cell-based, Enterococcus faecalis; details: disc ~50 μg MP; note: key: -: resistant; N: not determined
M. smegmatis LR222 = test: Growth kinetics with Ga-PPIX; format: cell-based, Mycobacterium smegmatis; details: 1 μg/ml
S. aureus [6] = test: Minimal bactericidal concentration; format: cell-based, Staphylococcus aureus; details: reduces plating efficiency more than 99.9%; minimal exposure to light
Procedure, shortened: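 Bacteria exposed to porphyrin derivatives above MIC as in the MIC assay, then plated on LB or LB+Tween 80 agar. MBC taken as the concentration reducing plating efficiency by more than 99.9%; light exposure kept minimal.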

Ps. aeruginosa = test: Disc diffusion sensitivity test; format: cell-based, Pseudomonas aeruginosa; details: disc ~50 μg MP; note: key: -: resistant; N: not determined
M. smegmatis [7] = test: Minimal bactericidal concentration; format: cell-based, Mycobacterium smegmatis; details: reduces plating efficiency more than 99.9%; minimal exposure to light
E. aerogenes = test: Disc diffusion sensitivity test; format: cell-based, Enterobacter aerogenes
S. pyogenes A = test: Disc diffusion sensitivity test; format: cell-based, Streptococcus pyogenes; details: disc ~50 μg MP
M. smegmatis [8] = test: Disc diffusion sensitivity test; format: cell-based, Mycobacterium smegmatis; details: disc ~50 μg MP
K. oxytoca = test: Disc diffusion sensitivity test; format: cell-based, Klebsiella oxytoca
Staphylococcus xylolus = test: Disc diffusion sensitivity test; format: cell-based; details: 50 μg disc
M. tuberculosis = format: cell-based, Mycobacterium tuberculosis
M. smegmatis [9] = tested on: M. smegmatis

Structure (SMILES): C=CC1=C(C)C2=Cc3c(C=C)c(C)c4[n]3[Ga][n]3c(c(C)c(CCC(=O)O)c3=CC3=NC(=C4)C(C)=C3CCC(=O)O)=CC1=N2 [Ga-PPIX, Gallium (III) protoporphyrin IX chloride]
- MIC (N. gonorrhoeae): 0.1 µg/mL
- MIC in Muller-Hinton broth versus NB broth (S. aureus [1]; Muller-Hinton broth): did not differ significantly
- lower MIC in low iron media (S. aureus [1]; NBD with 0.1 mM dipyridyl): 2 fold
- MIC (S. aureus [1]; S. aureus 8325-4 (Table 4)): < 0.1 µg/mL
- MIC (S. aureus [1]; S. aureus 8325-4 (Table 6), in µg/mL): 1-2
- MIC (S. aureus [1]; S. aureus 8325-4, 20 to 24 hours (Table 5)): 1 to 2 µg/mL
- MIC (S. aureus [1]; S. aureus IR2419, dark (Table 10)): 1.6 µg/mL
- Minimal inhibitory concentration (MIC) (S. aureus [1]; methicillin-resistant S. aureus IR219, Nutrient broth (Table 2)): 1.6 µg/mL
- diameter (mm) of the inhibition zone (P. mirabills; P. mirabilis, disc ~50 μg MP): 21 mm
- sensitive strains / strains tested (inhibition zones larger or equal 20 mm) (P. mirabills; Proteus mirabilis, 50 μg disc): 2/2
- MIC (L. monocytogenes): 0.2 µg/mL
- diameter (mm) of the inhibition zone (N. meningitidis): 24 mm
- diameter (mm) of the inhibition zone (B. subtilis): 24 mm
- diameter (mm) of the inhibition zone (S. marcescens; S. marcescens, disc ~50 μg MP): 23 mm
- sensitive strains / strains tested (inhibition zones larger or equal 20 mm) (S. marcescens; Serratia marcescens, 50 μg disc): 2/3
- sensitivity (preliminary experiments) (M. avium; M. avium): sensitive
- MIC (M. avium; M. avium ATCC15769 (Table 5)): 1 µg/mL
- MIC ([2]; M. bovis (BCG) (Table 4)): 0.4 µg/mL
- MIC ([2]; M. bovis (BCG), two weeks (Table 5)): 0.4 µg/mL
- diameter (mm) of the inhibition zone (C. freundii; C. freundii, disc ~50 μg MP): 22 mm
- sensitive strains / strains tested (inhibition zones larger or equal 20 mm) (C. freundii; Citrobacter freundii, 50 μg disc): 4/4
- growth in presence of Ga-PPIX [3]: inhibited growth of S. aureus in the first 20 hours of growth
- diameter (mm) of the inhibition zone (M tuber. H37Pa): 36 mm
- diameter (mm) of the inhibition zone (M. bovis): 35 mm
- MIC (E. coli; E. coli DH-5 alpha hemA (Table 6)): > 10 µg/mL
- sensitivity (E. coli; E. coli K-12 (hemPR+) wild type and hemA mutant, with delta-aminolevulinic acid): fully sensitive
- TonB dependence of inhibition (E. coli; E. coli TonB mutant overexpressing HemR): TonB activity is necessary
- MIC (E. coli; E. coli dh-5 alpha hemA(hemR+) (Table 6)): < 0.1 µg/mL
- MIC Ga-PPIX (E. coli; EC06 (MC1061, ΔccmABCDEFGH), NB): > 20 µg/mL
- MIC Ga-PPIX (E. coli; EC06 (MC1061, ΔccmABCDEFGH), NBD[50 μM]): > 20 µg/mL
- MIC Ga-PPIX (E. coli; GO103 (GR70N, ΔcydAB), NB): 10 µg/mL
- MIC Ga-PPIX (E. coli; GO103 (GR70N, ΔcydAB), NBD[50 μM]): 6.4 µg/mL
- MIC Ga-PPIX (E. coli; GP104 (GR70N, ΔcyoABCDE), NB): 10 µg/mL
- MIC Ga-PPIX (E. coli; GP104 (GR70N, ΔcyoABCDE), NBD[50 μM]): 10 µg/mL
- MIC Ga-PPIX (E. coli; GR70N w.t., NB): 10 µg/mL
- MIC Ga-PPIX (E. coli; GR70N w.t., NBD[50 μM]): 10 µg/mL
- MIC Ga-PPIX (E. coli; IR2885 (GO104 [phemR+]), NB): < 0.2 µg/mL
- MIC Ga-PPIX (E. coli; IR2885 (GO104 [phemR+]), NBD[50 μM]): < 0.02 µg/mL
- MIC Ga-PPIX (E. coli; IR2897 (GR70N [phemR+]), NB): > 10 µg/mL
- MIC Ga-PPIX (E. coli; IR2897 (GR70N [phemR+]), NBD[50 μM]): < 0.1 µg/mL
- MIC Ga-PPIX (E. coli; IR2898 (GO103 [phemR+]), NB): < 0.2 µg/mL
- MIC Ga-PPIX (E. coli; IR2898 (GO103 [phemR+]), NBD[50 μM]): < 0.02 µg/mL
- MIC Ga-PPIX (E. coli; IR2899 (MWC215 [phemR+]), NB): > 10 µg/mL
- MIC Ga-PPIX (E. coli; IR2899 (MWC215 [phemR+]), NBD[50 μM]): < 0.1 µg/mL
- MIC Ga-PPIX (E. coli; IR2976 (EC06 [phemR+]), NB): > 30 µg/mL
- MIC Ga-PPIX (E. coli; IR2976 (EC06 [phemR+]), NBD[50 μM]): 0.5 µg/mL
- MIC Ga-PPIX (E. coli; MWC215 (GR70N, ndh), NB): 10 µg/mL
- MIC Ga-PPIX (E. coli; MWC215 (GR70N, ndh), NBD[50 μM]): 10 µg/mL
- higher MIC under iron-sufficient growth conditions (E. coli; all other mutants): 50 fold
- sensitivity without an iron chelator (E. coli; cytochrome cd and cyo single mutants): still sensitive
- sensitivity concentration of HemR-plasmid strains (E. coli; slight iron restriction (0.05 mM dipyridyl)): less than 0.5 μg/ml
- Minimal bactericidal concentration (MBC) (Y. enterocolitica [4]): 6.4
- diameter (mm) of the inhibition zone (Y. enterocolitica [5]): 28 mm
- MIC (Y. pseudotuberculosis; Y. pseudotuberculosis YP66 (Table 4)): < 0.1 µg/mL
- MIC (Y. pseudotuberculosis; Y. pseudotuberculosis YP66 (Table 6), in µg/mL): 0.2-0.4
- diameter (mm) of the inhibition zone (E. faecalis): -
- growth in presence of Ga-PPIX (M. smegmatis LR222): completely prevented growth
- Minimal bactericidal concentration (MBC) (S. aureus [6]): > 13
- diameter (mm) of the inhibition zone (Ps. aeruginosa): -
- Minimal bactericidal concentration (MBC) (M. smegmatis [7]): 10
- diameter (mm) of the inhibition zone (E. aerogenes; E. aerogenes, disc ~50 μg MP): 22 mm
- sensitive strains / strains tested (inhibition zones larger or equal 20 mm) (E. aerogenes; Enterobacter aerogenes, 50 μg disc): 1/1
- diameter (mm) of the inhibition zone (S. pyogenes A): -
- diameter (mm) of the inhibition zone (M. smegmatis [8]): 25 mm
- diameter (mm) of the inhibition zone (K. oxytoca; K. oxytoca, disc ~50 μg MP): 21 mm
- sensitive strains / strains tested (inhibition zones larger or equal 20 mm) (K. oxytoca; Klebsiella oxytoca, 50 μg disc): 1/1
- sensitive strains / strains tested (inhibition zones larger or equal 20 mm) (Staphylococcus xylolus): 1/1
- MIC (M. tuberculosis; M. tuberculosis Rv (Table 5)): 4 µg/mL
- sensitivity (preliminary experiments) (M. tuberculosis; pathogenic M. tuberculosis): sensitive
- spontaneous resistance (M. smegmatis [9]): did not produce spontaneous resistant mutants
